The source made the active and inactive calls. No cut-off for these calls is given here.

In ChEMBL document CHEMBL4627306, “Novel cilengitide-based cyclic RGD peptides as αvβ3 integrin inhibitors” (Bioorg Med Chem Lett, 2020) one finds IC50, Activity and inhibition data, which are given here for five molecules.

One assay addresses Integrin alpha-V/beta-5 (Homo sapiens, UniProt P06756+P18084). In words: Inhibition of vitronectin binding to recombinant human integrin alphaV (Phe31 to Val992 residues) beta5 (Gly24 to Asn719 residues) expressed in CHO cells by ELISA based solid phase binding assay. Type of assay: cell-based. On the technique in general: An ELISA detects its analyte on a solid surface through an enzyme-linked reagent.

Assay [1] has as its target Integrin alpha-IIb/beta-3 (Homo sapiens, UniProt P05106+P08514). The assay can be described thus: Inhibition of fibrinogen binding to human platelet integrin alpha2b beta3 by ELISA based solid phase binding assay.
In the next assay the target is Integrin alpha-V/beta-6 (Homo sapiens, UniProt P06756+P18564). In words: Inhibition of latency-associated peptide/TGF-beta binding to recombinant human integrin alphaV (Phe31 to Val992 residues) beta6 (Gly22 to Asn707 residues) expressed in CHO cells by ELISA based solid phase binding assay. Type of assay: cell-based.
For assay [2], the system named is HUVEC. The assay can be described thus: Antiproliferative activity against HUVEC assessed as effect on cell viability up to 30 uM after 24 hrs by trypan blue assay. Type of assay: functional, cell-based. The following applies: Homo sapiens.
In the next assay the target is Integrin alpha-V/beta-3 (Homo sapiens, UniProt P05106+P06756). The assay can be described thus: Inhibition of vitronectin binding to recombinant human integrin alphaV (Phe31 to Val992 residues) beta3 (Gly27 to Asp718 residues) expressed in CHO cells by ELISA based solid phase binding assay. Type of assay: cell-based.
The target in the next assay is Integrin alpha-5/beta-1 (Homo sapiens, UniProt P05556+P08648). In words: Inhibition of fibronectin binding to recombinant human integrin alpha5 (Phe42 to Tyr995 residues) beta1 (Gln21 to Asp728 residues) expressed in CHO cells by ELISA based solid phase binding assay. Type of assay: cell-based.
In assay [3] the test system is HUVEC. In words: Inhibition of tube formation in HUVEC up to 30 uM after 24 hrs […]. Type of assay: functional, cell-based. To be noted: Homo sapiens.
The next assay deals with Integrin alpha-V/beta-8 (Homo sapiens, UniProt P06756+P26012). The assay can be described thus: Inhibition of latency-associated peptide/TGF-beta binding to recombinant human integrin alphaV (Phe31 to Val992 residues) beta8 (Glu43 to Arg684 residues) expressed in CHO cells by ELISA based solid phase binding assay. Type of assay: cell-based.

The IC50 is the midpoint of a concentration-inhibition curve. On to `COc1c2cccc1C(=O)N[C@@H](CCCNC(=N)N)C(=O)NCC(=O)N[C@@H](CC(=O)O)C(=O)N[C@H](Cc1ccccc1)C(=O)N2`, for which the IC50 on Integrin alpha-V/beta-5 came to 4930 nM; in assay [1], 4860 nM; on Integrin alpha-V/beta-6, 709 nM; at Integrin alpha-V/beta-3, 72 nM; on Integrin alpha-5/beta-1, 921 nM; at Integrin alpha-V/beta-8 it was 6880 nM. Besides, in the assay with HUVEC [2], the outcome was inactive. In addition, in the assay with HUVEC [3], the inhibition result was “inactive”.
Consider `CC1(C)NC(=O)[C@@H](Cc2ccccc2)NC(=O)[C@H](CC(=O)O)NC(=O)CNC(=O)[C@H](CCCNC(=N)N)NC1=O`, for which the IC50 at Integrin alpha-V/beta-5 is 50 nM; in assay [1], more than 10000 nM; at Integrin alpha-V/beta-6, 378 nM; at Integrin alpha-V/beta-3, 5.5 nM; on Integrin alpha-5/beta-1 it was 141 nM; at Integrin alpha-V/beta-8, 806 nM. Also, the result with HUVEC [2] was inactive. For the same molecule, in the assay with HUVEC [3], the inhibition entry was “inactive”.
Turning to `N=C(N)NCCC[C@@H]1NC(=O)C2(CCCCC2)NC(=O)[C@@H](Cc2ccccc2)NC(=O)[C@H](CC(=O)O)NC(=O)CNC1=O`, the IC50 at Integrin alpha-V/beta-5 is 63 nM; in assay [1], more than 10000 nM; at Integrin alpha-V/beta-6 it was 608 nM; at Integrin alpha-V/beta-3, 3.3 nM; at Integrin alpha-5/beta-1, 87.8 nM; at Integrin alpha-V/beta-8 it was 1500 nM. Also, the outcome in the assay on HUVEC [2] was inactive. Further, the inhibition result with HUVEC [3] is “inactive”.
As for `C[Si]1(C)C[C@@H]2C(=O)N[C@@H](CCCNC(=N)N)C(=O)NCC(=O)NC(CC(=O)O)C(=O)NC(Cc3ccccc3)C(=O)N2C1` (single isomer, unassigned), the IC50 on Integrin alpha-V/beta-5 was 66 nM; in assay [1], more than 10000 nM; at Integrin alpha-V/beta-6, 178 nM; on Integrin alpha-V/beta-3, 11 nM; on Integrin alpha-5/beta-1 it was 1080 nM; at Integrin alpha-V/beta-8, 319 nM. The result with HUVEC [2] was inactive. In addition, the inhibition result in the assay with HUVEC [3] was “inactive”.
As to `N=C(N)NCCC[C@@H]1NC(=O)CC2(CCCCC2)CNC(=O)[C@@H](Cc2ccccc2)NC(=O)[C@H](CC(=O)O)NC(=O)CNC1=O`, the IC50 at Integrin alpha-V/beta-5 is 303 nM; in assay [1] it was 657 nM; at Integrin alpha-V/beta-6, 1970 nM; at Integrin alpha-V/beta-3 it was 9.9 nM; on Integrin alpha-5/beta-1, 623 nM; at Integrin alpha-V/beta-8 it was 3950 nM. The outcome in the assay with HUVEC [2] was inactive. Further, in the assay on HUVEC [3], the inhibition result was “inactive”.
